One may read the IC50 as the concentration at which inhibition is half-maximal.

Structures are written as SMILES.

One test relates to HCT-116. Description: Anticancer activity against human HCT-116 cells assessed as inhibition of cell growth measured after 72 hrs by MTT assay. In kind it is functional, cell-based. The following applies: HCT-116, 72 h. A general note: Tetrazolium assays rely on reduction of a dye to a coloured formazan, in cell work by metabolically active cells.
Test [1] concerns HeLa. Nature of the test: Antiproliferative activity against human HeLa cells assessed as cell viability measured after 24 hrs by MTT assay. Format: functional, cell-based.
For test [2], the system named is HeLa. Description: Anticancer activity against human HeLa assessed as inhibition of cell growth incubated for 48 hrs by SRB assay. Format: functional, cell-based. On the technique in general: In SRB staining, fixed cells bind dye roughly in proportion to their protein.
The subject of test [3] is MDA-MB-231. Description: Anticancer activity against human MDA-MB-231 assessed as inhibition of cell growth incubated for 48 hrs by SRB assay. Format: functional, cell-based. The following applies: MDA-MB-231, 48 h.
Test [4] relates to MDA-MB-231. Description: Anticancer activity against human MDA-MB-231 cells assessed as inhibition of cell growth. In kind it is functional, cell-based.
In a further test the test system is HT-29. Description: Anticancer activity against human HT-29 cells assessed as cell growth inhibition. In kind it is functional, cell-based.
Test [5] relates to HepG2. Description: Anticancer activity against human HepG2 cells assessed as inhibition of cell growth. Format: functional, cell-based.
In a further test the test system is Caco-2. Nature of the test: Anticancer activity against human Caco-2 cells assessed as inhibition of cell growth. Format: functional, cell-based.
For a further test, the system named is KB 3-1. Description: Anticancer activity against human KB 3-1 cells assessed as inhibition in cell growth. In kind it is functional, cell-based.
Test [6] has as its system HepG2. Description: Anticancer activity against human HepG2 cells assessed as inhibition of cell growth incubated for 96 hrs. Format: functional, cell-based. The following applies: HepG2, 96 h.
A further test relates to A549. Nature of the test: Anticancer activity against human A549 cells assessed as inhibition of cell growth incubated for 96 hrs. In kind it is functional, cell-based. To be noted: A549, 96 h.
For a further test, the system named is PC-3. Description: Anticancer activity against human PC-3 cells assessed as inhibition of cell growth incubated for 96 hrs. To be noted: PC-3, 96 h. Format: functional, cell-based.
The subject of test [7] is HepG2. Nature of the test: Anticancer activity against human HepG2 cells assessed as inhibition of cell growth incubated for 48 hrs by ELISA based SRB assay. In kind it is functional. To be noted: HepG2, 48 h.
For another test, the system named is MCF7. Nature of the test: Anticancer activity against human MCF7 cells assessed as inhibition of cell growth incubated for 48 hrs by ELISA based SRB assay. Format: functional. The following applies: MCF7, 48 h. A general note: ELISA stands for enzyme-linked immunosorbent assay.

For `CC(/C=C/c1ccccc1)=C\[C@H](O)[C@@H]1CCC(=O)N[C@@H](CO)C(=O)NC2C[n+]3cc(n([C@@H]4O[C@H](CO)[C@H](O)[C@H](O)[C@H]4O)c3)CC(NC(=O)CCC[C@@H](C(=O)[O-])NC(=O)[C@@H](O)CNC(=O)[C@H](Cc3ccc(Br)cc3)NC(=O)[C@H]([C@@H](O)C(N)=O)NC(=O)[C@H](CC(N)=O)NC2=O)C(=O)N[C@@H]([C@@H](C)O)C(=O)N[C@@H](CO)C(=O)N[C@@H](Cc2ccccc2)C(=O)N1` (some centres undefined), the IC50 in the test with HCT-116 stood at 6 µM.

As to `CCOC(=O)Cc1c(O)cc(Br)c(O)c1Br`, the IC50 in the test with HeLa [1] and with HeLa [2] was 13.3 µM in each case.

`COC1=C(Br)[C@@H]2OC(=O)C[C@]2(O)C=C1Br`: the IC50 with MDA-MB-231 [3] and in the test on MDA-MB-231 [4] was 18 µM throughout.

As to `CC1=CC[C@H]2[C@@H]([C@@H]1CC[C@H]1[C@]3(C)CC[C@H](O)C(C)(C)O[C@H]3CC[C@]1(C)O)C(C)(C)CC[C@]2(C)O` [SIPHOLENOL L], the IC50 with HT-29 came to 4.48 µM; in the test with HepG2 [5], 24 µM; with Caco-2 it was 26.6 µM; in the test with KB 3-1, 0.0051 µM.

As for `CC(=O)O[C@@H]1OC=C2C1[C@]1(C)C(C[C@@H]2OC(C)=O)[C@]2(C)CCC3C(C)(C)CCC[C@]3(C)C2C[C@H]1O` (some centres undefined), the figures for the IC50 with HepG2 [6], in the test on A549 and in the test with PC-3 were 0.041 µM, 0.027 µM and 0.077 µM, respectively.

Take `CCCCCCCCCCCCCCCCCC[C@@H](O)C(=O)N[C@@H](CO)[C@H](O)[C@H](O)CCCCCCCCCCCCCCCC`: the IC50 was 25.4 µM in the test on HepG2 [7] and 28.3 µM with MCF7.

The values above are taken from ChEMBL document CHEMBL5149985, “Discovery of cytotoxic natural products from Red Sea sponges: Structure and synthesis” (Eur J Med Chem, 2021).
